The record followed here is patent US9492433B2, “Pharmaceutical composition for the treatment of Duchenne muscular dystrophy” (Summit Corporation Plc, priority 2012, dated 2016).

SMILES strings stand for the structures. Values after ≈ are worked out from the molar mass of the structure shown. Like-named read-outs stand apart in the source and are kept apart here.

Format in all cases: physicochemical
Series [1] in a line: Water/octanol partition coefficient (ProfilerLDA isocratic chromatography). As to conditions: octanol/water (octanol-coated column), pH 7.4; read-out: log D (water/octanol partition coefficient). Here is the method: The water/octanol partition coefficient was determined with a ProfilerLDA isocratic chromatography system, using an octanol-coated column with octanol-saturated mobile phases.

A short description of series [2]: Solubility in water and corn oil.
Series [3] can be described thus: Solubility of C1100 Form I in pharmaceutically-acceptable solvents at 20° C. (HPLC of saturated solutions). As to conditions: organic solvent or mixture, thermodynamic from solid, Form I polymorph, 4 hours equilibration. Here is the method:
In each case, about 25 mg of drug substance was allowed to equilibrate with 250 μL of solvent over 4 hours. The resulting saturated solutions were filtered and analysed by HPLC.

The nature of series [4]: Gravimetric vapour sorption analysis. Particulars: Form I. The text has this:
Form I was subjected to gravimetric vapour sorption analysis, ramping profile from 0 to 90% RH at 10% RH increments.

What is called solubility is the dissolved amount per volume that the medium holds. As to `CCS(=O)(=O)c1ccc2oc(-c3ccc4ccccc4c3)nc2c1` [C1100, 5-(ethylsulfonyl)-2-(naphthalen-2-yl)benzo[d]oxazole], the chromatographic logD in series [1] was determined as 3.99 ± 0.01. Moreover, the solubility was 600 µg/mL (≈ 1.78 mM) in series [2] (oil or lipid, corn oil, very slightly soluble, read-out: Solubility in corn oil) and less than 1 µg/mL in series [2] (water, practically insoluble, read-out: Solubility in water). Also, the solubility at 4 h stood at 28400 µg/mL (≈ 84.2 mM) in series [3] (solvent 1,4-dioxane); 350 µg/mL (≈ 1.04 mM) in series [3] (solvent 1-butanol); 790 µg/mL (≈ 2.34 mM) in series [3] (solvent 1-propanol); 850 µg/mL (≈ 2.52 mM) in series [3] (solvent 2-butanol); 470 µg/mL (≈ 1.39 mM) in series [3] (solvent 2-propanol); 27500 µg/mL (≈ 81.6 mM) in series [3] (solvent Acetone). Also, the solubility at 4 h in series [3] (solvent Acetonitrile) is 5440 µg/mL (≈ 16.1 mM); in series [3] (solvent Butan-2-one), 3120 µg/mL (≈ 9.25 mM); in series [3] (solvent Chloroform), greater than 50000 µg/mL; in series [3] (solvent Dimethylformamide), greater than 33800 µg/mL; in series [3] (solvent Dimethylsulfoxide), 13200 µg/mL (≈ 39.1 mM); in series [3] (solvent Ethanol) it was 1140 µg/mL (≈ 3.38 mM). Also, the solubility at 4 h in series [3] (solvent Ethyl acetate) was found to be 8360 µg/mL (≈ 24.8 mM); in series [3] (solvent Heptane), 10900 µg/mL (≈ 32.4 mM); in series [3] (solvent Methanol), 1060 µg/mL (≈ 3.14 mM); in series [3] (solvent Tetrahydrofuran), 25900 µg/mL (≈ 76.8 mM); in series [3] (solvent Toluene), 8500 µg/mL (≈ 25.2 mM); in series [3] (solvent tert-butyl methyl ether (TBME)) it was 11700 µg/mL (≈ 34.6 mM). Further, the Moisture absorbed result in series [4] (0 to 90% RH at 10% RH increments, up to 90% RH, reversed under dry-air conditions) was “no more than 0.25 % by weight”. In addition, the Hygroscopicity result in series [4] (based on vapour sorption results) is “not hygroscopic”.
